Measured values taken from publication PMC3598812, “Evaluation of Anti-Hyperalgesic and Analgesic Effects of Two Benzodiazepines in Human Experimental Pain: A Randomized Placebo-Controlled Study” (PLoS ONE, 2013).

Assays:
healthy male volunteers [1] = experiment: Pain rating (VAS) after graded von Frey hair stimulation in the capsaicin hyperalgesic area; format: in vivo, human; settings: VAS 0-10, single oral dose (clobazam 20 mg, clonazepam 1 mg, tolterodine 1 mg), mean (SD)
Method: Additionally, mechanical pain sensitivity was assessed using a set of seven weighted pinprick stimuli to obtain a stimulus-response function. The test was applied 1 cm inside the outer border of the pinprick hyperalgesic area, using a set of 7 graded von Frey hair mechanical stimulators with fixed stimulus intensities (custom-made at Aalborg University, Denmark). The flat contact area of the stimulators has a 0.2 mm diameter, and the 7 stimulators exert forces of 8, 16, 32, 64, 128, 256 and 512 mN. The order of stimulation was defined randomly by computer. The stimulators were applied at a rate of 2 s on/2 s off. Subjects were asked to give a pain rating for each stimulus on a 10 cm VAS. Two assessments for each stimulation were made and the mean of these 2 measurements was used for the data analysis.

healthy male volunteers [2] = experiment: Pressure pain detection and tolerance thresholds (pressure algometer, 2nd toe); format: in vivo, human; settings: mean (SD)
Method: Pain detection and tolerance thresholds were measured with an electronic pressure algometer (Somedic, Hörby, Sweden) applied at the center of the pulp of the 2nd toe. […] The pressure was increased from 0 at a rate of 30 kPa/s to a maximum pressure of 1200 kPa. Pain detection threshold was defined as the point at which the pressure sensation turned to pain. Pain tolerance threshold was defined as the point at which the subject felt the pain as intolerable. If the threshold was not reached at 1200 kPa, this value was considered as threshold. Three assessments were made and the mean of these 3 measurements were used for the data analysis.

healthy male volunteers [3] = experiment: Cutaneous repeated (20 stimuli) electrical stimulation, VAS; format: in vivo, human; set-up: AUC of VAS during 20 cutaneous electrical stimuli: unit not given beside the values; settings: mean (SD); for Maximal VAS during 20 cutaneous electrical stimuli: VAS 0-10
Method: (§1) The stimulus burst used for single stimulus was repeated for a train of 20 pulses at 2 Hz, at an intensity corresponding to the temporal summation threshold. During this 10 s stimulation, pain intensity was continuously rated by the subject with an electronic VAS, and the area under the curve (AUC) was computed. Additionally, the maximal VAS during stimulation was recorded.

healthy male volunteers [4] = experiment: Intramuscular repeated (20 stimuli) electrical stimulation, VAS; format: in vivo, human; set-up: AUC of VAS during 20 intramuscular electrical stimuli: unit not given beside the values; settings: mean (SD); for Maximal VAS during 20 intramuscular electrical stimuli: VAS 0-10
Method: as §1
A needle was placed in the tibialis anterior muscle, 14 cm distal from the caudal end of the patella and 20 mm in depth. The same single and repeated stimulation patterns and the same procedure described for cutaneous stimulation were used.

patients / volunteers = settings: ref Micromedex 2009; cited from earlier work
[5] = baseline before medication, per drug session
[6] = single oral dose (clobazam 20 mg, clonazepam 1 mg, tolterodine 1 mg), 120 min after medication
[7] = single oral dose (clobazam 20 mg, clonazepam 1 mg, tolterodine 1 mg), after flumazenil 0.2 mg iv
[8] = single oral dose (clobazam 20 mg, clonazepam 1 mg, tolterodine 1 mg), 30 min after medication
[9] = single oral dose (clobazam 20 mg, clonazepam 1 mg, tolterodine 1 mg), 60 min after medication
[10] = single oral dose (clobazam 20 mg, clonazepam 1 mg, tolterodine 1 mg), 90 min after medication

Cc1ccc(O)c([C@H](CCN(C(C)C)C(C)C)c2ccccc2)c1 [Tolterodine]
VAS after von Frey hair 8 mN (healthy male volunteers [1]; 30 min after medication): 1.3 (1.5)
VAS after von Frey hair 16 mN (healthy male volunteers [1]; 30 min after medication): 1.7 (1.8)
VAS after von Frey hair 32 mN (healthy male volunteers [1]; 30 min after medication): 2.5 (1.9)
VAS after von Frey hair 64 mN (healthy male volunteers [1]; 30 min after medication): 3.2 (2.3)
VAS after von Frey hair 128 mN (healthy male volunteers [1]; 30 min after medication): 3.4 (2.2)
VAS after von Frey hair 256 mN (healthy male volunteers [1]; 30 min after medication): 4.2 (2.1)
VAS after von Frey hair 512 mN (healthy male volunteers [1]; 30 min after medication): 4.9 (2.0)
VAS after von Frey hair 8 mN (healthy male volunteers [1]; 60 min after medication): 1.2 (1.3)
VAS after von Frey hair 16 mN (healthy male volunteers [1]; 60 min after medication): 1.9 (1.9)
VAS after von Frey hair 32 mN (healthy male volunteers [1]; 60 min after medication): 2.7 (2.2)
VAS after von Frey hair 64 mN (healthy male volunteers [1]; 60 min after medication): 2.9 (1.8)
VAS after von Frey hair 128 mN (healthy male volunteers [1]; 60 min after medication): 3.5 (2.2)
VAS after von Frey hair 256 mN (healthy male volunteers [1]; 60 min after medication): 4.2 (2.1)
VAS after von Frey hair 512 mN (healthy male volunteers [1]; 60 min after medication): 5.2 (2.0)
VAS after von Frey hair 8 mN (healthy male volunteers [1]; 90 min after medication): 1.2 (1.4)
VAS after von Frey hair 16 mN (healthy male volunteers [1]; 90 min after medication): 1.6 (1.9)
VAS after von Frey hair 32 mN (healthy male volunteers [1]; 90 min after medication): 2.2 (1.4)
VAS after von Frey hair 64 mN (healthy male volunteers [1]; 90 min after medication): 2.8 (2.0)
VAS after von Frey hair 128 mN (healthy male volunteers [1]; 90 min after medication): 3.1 (2.0)
VAS after von Frey hair 256 mN (healthy male volunteers [1]; 90 min after medication): 4.2 (2.0)
VAS after von Frey hair 512 mN (healthy male volunteers [1]; 90 min after medication): 4.9 (2.1)
VAS after von Frey hair 8 mN (healthy male volunteers [1]; 120 min after medication): 1.0 (0.9)
VAS after von Frey hair 16 mN (healthy male volunteers [1]; 120 min after medication): 1.4 (1.3)
VAS after von Frey hair 32 mN (healthy male volunteers [1]; 120 min after medication): 1.9 (1.3)
VAS after von Frey hair 64 mN (healthy male volunteers [1]; 120 min after medication): 2.3 (1.5)
VAS after von Frey hair 128 mN (healthy male volunteers [1]; 120 min after medication): 2.9 (2.0)
VAS after von Frey hair 256 mN (healthy male volunteers [1]; 120 min after medication): 4.1 (2.5)
VAS after von Frey hair 512 mN (healthy male volunteers [1]; 120 min after medication): 4.8 (2.2)
VAS after von Frey hair 8 mN (healthy male volunteers [1]; after flumazenil 0.2 mg iv): 1.1 (1.2)
VAS after von Frey hair 16 mN (healthy male volunteers [1]; after flumazenil 0.2 mg iv): 1.1 (0.9)
VAS after von Frey hair 32 mN (healthy male volunteers [1]; after flumazenil 0.2 mg iv): 2.1 (1.6)
VAS after von Frey hair 64 mN (healthy male volunteers [1]; after flumazenil 0.2 mg iv): 2.6 (1.7)
VAS after von Frey hair 128 mN (healthy male volunteers [1]; after flumazenil 0.2 mg iv): 2.6 (1.5)
VAS after von Frey hair 256 mN (healthy male volunteers [1]; after flumazenil 0.2 mg iv): 4.1(1.7)
VAS after von Frey hair 512 mN (healthy male volunteers [1]; after flumazenil 0.2 mg iv): 5.0 (2.2)
Pressure pain detection threshold (healthy male volunteers [2]; [5]): 403 (118) kPa
Pressure pain tolerance threshold (healthy male volunteers [2]; [5]): 674 (221) kPa
Pressure pain detection threshold (healthy male volunteers [2]; [6]): 371 (88) kPa
Pressure pain detection threshold (healthy male volunteers [2]; [7]): 382 (118) kPa
Pressure pain tolerance threshold (healthy male volunteers [2]; [7]): 685.0 (203) kPa
Maximal VAS during 20 cutaneous electrical stimuli (healthy male volunteers [3]; [5]): 4.7 (1.5)
Maximal VAS during 20 cutaneous electrical stimuli (healthy male volunteers [3]; [8]): 5.1 (1.6)
Maximal VAS during 20 cutaneous electrical stimuli (healthy male volunteers [3]; [9]): 4.8 (1.8)
Maximal VAS during 20 cutaneous electrical stimuli (healthy male volunteers [3]; [10]): 4.9 (1.8)
Maximal VAS during 20 cutaneous electrical stimuli (healthy male volunteers [3]; [6]): 4.6 (1.8)
Maximal VAS during 20 cutaneous electrical stimuli (healthy male volunteers [3]; [7]): 4.7 (1.6)
AUC of VAS during 20 cutaneous electrical stimuli (healthy male volunteers [3]; [5]): 379 (155)
AUC of VAS during 20 cutaneous electrical stimuli (healthy male volunteers [3]; [8]): 382 (134)
AUC of VAS during 20 cutaneous electrical stimuli (healthy male volunteers [3]; [9]): 362 (155)
AUC of VAS during 20 cutaneous electrical stimuli (healthy male volunteers [3]; [10]): 336 (143)
AUC of VAS during 20 cutaneous electrical stimuli (healthy male volunteers [3]; [6]): 328 (144)
AUC of VAS during 20 cutaneous electrical stimuli (healthy male volunteers [3]; [7]): 326 (136)
Maximal VAS during 20 intramuscular electrical stimuli (healthy male volunteers [4]; [5]): 4.5 (1.6)
Maximal VAS during 20 intramuscular electrical stimuli (healthy male volunteers [4]; [6]): 3.8 (2.4)
Maximal VAS during 20 intramuscular electrical stimuli (healthy male volunteers [4]; [7]): 4.1 (2.5)
AUC of VAS during 20 intramuscular electrical stimuli (healthy male volunteers [4]; [5]): 323 (127)
AUC of VAS during 20 intramuscular electrical stimuli (healthy male volunteers [4]; [6]): 286 (198)
AUC of VAS during 20 intramuscular electrical stimuli (healthy male volunteers [4]; [7]): 316 (206)
Dizziness, expected side effect frequency (patients / volunteers): 2%
Somnolence, expected side effect frequency (patients / volunteers): 3%
